From patent US12391737B2, “Soluble NPY2 receptor agonists” (Boehringer Ingelheim International GmbH, priority 2020, dated 2025)

How the values were obtained:
Solubility determination = settings: for Sol6: pH 6; for Sol7: pH 7
Outline: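 Solubility is derived from the ratio of reversed-phase peak areas, filtered sample over a control dissolved at 1 mg/ml in 50% acetonitrile. Peptides are agitated for 2 hours at room temperature in 0.1 M sodium diphosphate at pH 6.4 or 7.0, aiming at 10 mg/ml.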

[1] = target: T1, human NPY1 receptor (hY1R) (Homo sapiens, UniProt P25929); test: HTRF cAMP Gi assay, hY1R; type: cell-based; settings: CHO-K1 cells
T1 construct: expressed in transfected cells; host or cells: CHO-K1
T1 sequence (P25929 1-384): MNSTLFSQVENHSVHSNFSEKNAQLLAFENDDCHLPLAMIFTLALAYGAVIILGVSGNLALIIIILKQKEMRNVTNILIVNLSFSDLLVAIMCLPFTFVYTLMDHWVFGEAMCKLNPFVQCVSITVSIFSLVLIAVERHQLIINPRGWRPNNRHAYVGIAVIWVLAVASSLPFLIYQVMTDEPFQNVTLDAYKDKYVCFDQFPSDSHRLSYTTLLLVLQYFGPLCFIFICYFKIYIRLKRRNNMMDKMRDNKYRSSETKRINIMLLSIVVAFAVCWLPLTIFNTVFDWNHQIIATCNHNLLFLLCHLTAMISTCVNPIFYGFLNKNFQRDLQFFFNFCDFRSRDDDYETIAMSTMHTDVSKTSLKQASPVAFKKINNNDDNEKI

[2] = target: T2, human NPY4 receptor (hY4R) (Homo sapiens, UniProt P50391); test: HTRF cAMP Gi assay, hY4R; type: cell-based; settings: CHO-K1 cells
T2 construct: expressed in transfected cells; host or cells: CHO-K1
T2 sequence (P50391 whole entry): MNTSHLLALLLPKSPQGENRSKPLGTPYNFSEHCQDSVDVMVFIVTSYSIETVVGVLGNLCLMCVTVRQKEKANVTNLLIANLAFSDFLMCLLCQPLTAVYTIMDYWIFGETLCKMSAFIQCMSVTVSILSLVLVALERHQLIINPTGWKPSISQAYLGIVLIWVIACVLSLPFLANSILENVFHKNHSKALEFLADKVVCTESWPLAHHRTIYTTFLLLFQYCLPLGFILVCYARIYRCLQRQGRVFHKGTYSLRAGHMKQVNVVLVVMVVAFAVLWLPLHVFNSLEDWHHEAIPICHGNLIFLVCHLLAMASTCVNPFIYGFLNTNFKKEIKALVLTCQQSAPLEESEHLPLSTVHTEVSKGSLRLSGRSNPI

[3] = target: T3, human NPY5 receptor (hY5R) (Homo sapiens, UniProt Q15761); test: HTRF cAMP Gi assay, hY5R
T3 sequence (Q15761 1-445): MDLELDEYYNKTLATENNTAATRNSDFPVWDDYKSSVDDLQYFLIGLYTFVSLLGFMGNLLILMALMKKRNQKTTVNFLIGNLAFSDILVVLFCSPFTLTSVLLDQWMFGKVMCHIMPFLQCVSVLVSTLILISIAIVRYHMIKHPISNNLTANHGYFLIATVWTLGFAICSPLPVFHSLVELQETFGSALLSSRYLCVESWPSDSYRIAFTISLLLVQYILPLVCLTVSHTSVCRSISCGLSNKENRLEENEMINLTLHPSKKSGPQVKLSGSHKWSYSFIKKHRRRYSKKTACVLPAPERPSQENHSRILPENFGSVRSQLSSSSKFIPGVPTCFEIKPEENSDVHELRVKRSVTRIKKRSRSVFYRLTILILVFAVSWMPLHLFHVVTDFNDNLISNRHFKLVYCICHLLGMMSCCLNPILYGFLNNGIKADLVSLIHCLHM
Experimental: Briefly, the production of intracellular cAMP will generate a competition between unlabeled cAMP and exogenously added d2-cAMP for anti-cAMP antibodies conjugated to cryptate. CHO-K1 cells stably expressing the human NPY1, NPY2, NPY4 and NPY5 receptors were used with the cells brought to life from a frozen stock immediately before assay performance. 2000 cells per well were applied for all four NPY receptor subtype assays. A 384-well format was used applying a total volume of 20 μl using 5 μl cells, 2.5 μl peptide agonist, 2.5 μl forskolin and 5 μl of each of the fluorophores. […] Concentration-response evaluation of compounds was performed with 11 concentrations of agonist peptides (covering 3 decades). EC50 values were calculated by nonlinear regression using sigmoid concentration-response with variable slope.

[4] = target: T4, Human Neuropeptide Y2 Receptor (Homo sapiens, UniProt P49146); test: Radioligand binding competition assay (RLB); settings: Table 3, 125I-PYY(1-36) competition; read-out: Ki
T4 construct: purchased CHEMICON HTS066M
T4 sequence (P49146 1-381): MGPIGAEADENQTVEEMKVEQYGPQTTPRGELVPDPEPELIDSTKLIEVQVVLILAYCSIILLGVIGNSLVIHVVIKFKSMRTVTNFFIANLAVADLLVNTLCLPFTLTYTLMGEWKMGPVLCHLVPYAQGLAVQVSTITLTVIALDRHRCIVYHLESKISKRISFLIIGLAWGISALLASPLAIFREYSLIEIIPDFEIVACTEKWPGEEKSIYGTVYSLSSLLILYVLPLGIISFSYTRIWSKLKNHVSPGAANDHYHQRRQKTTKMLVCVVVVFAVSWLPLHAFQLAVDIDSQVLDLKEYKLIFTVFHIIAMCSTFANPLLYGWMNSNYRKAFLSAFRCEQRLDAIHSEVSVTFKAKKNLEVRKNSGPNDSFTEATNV
Outline: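 Filtration competition binding on membranes from cells expressing the receptor, 0.5 μg protein/well, in 50 mM HEPES, 5 mM MgCl2, 1 mM CaCl2, pH 7.4, with 0.2% ovalbumin. Incubation ran 2 h at room temperature, followed by GF/C filtration and scintillation counting. IC50 came from nonlinear sigmoidal fits.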

Row | Structure (SMILES) | Sol6 (Solubility determination) | Sol7 (Solubility determination) | EC50 [1] | EC50 [2] | EC50 [3] | Ki [4]
1 | CC[C@H](C)[C@H](NC(=O)[C@H](CCC(=O)O)NC(=O)[C@H](CCC(=O)O)NC(=O)[C@@H]1CCCN1C(=O)[C@@H](NC(=O)[C@H](C)NC(=O)[C@H](CC(=O)O)NC(=O)[C@H](C)NC(=O)[C@H](CCC(=O)O)NC(=O)[C@@H]1CCCN1C(=O)[C@H](CCCCNC(=O)CCCCCNC(=O)CC[C@H](NC(=O)CCCCCCCCCCCCCCCCC(=O)O)C(=O)O)NC(=O)[C@H](CCC(=O)O)NC(=O)[C@@H]1CCCN1C(=O)[C@H](C)NC(=O)CC(C)C)[C@@H](C)O)C(=O)N[C@@H](CCC(N)=O)C(=O)N[C@@H](CCCNC(=N)N)C(=O)N[C@@H](Cc1ccc(O)cc1)C(=O)N[C@@H](Cc1ccc(O)cc1)C(=O)N[C@H](C(=O)N[C@@H](C)C(=O)N[C@@H](CC(C)C)C(=O)N[C@@H](CCCNC(=N)N)C(=O)N[C@@H](Cc1c[nH]cn1)C(=O)N[C@@H](Cc1ccc(O)cc1)C(=O)N[C@@H](Cc1ccc(O)cc1)C(=O)N[C@@H](CC(N)=O)C(=O)N[C@@H](Cc1c[nH]c2ccccc12)C(=O)N[C@@H](CC(C)C)C(=O)N[C@H](C(=O)N[C@@H](CCCNC(=N)N)C(=O)N[C@@H](CCC(N)=O)C(=O)N[C@@H](CCCNC(=N)N)C(=O)N[C@@H](Cc1ccc(O)cc1)C(N)=O)[C@@H](C)O)C(C)C [Compound 184, N{alpha-4}-(3-methylbutanoyl)-N{epsilon-7}-(6-[(4S)-4-carboxy-4-(17-carboxyheptadecanamido)butanamido]hexanoyl)-[4A,7K,9E,10A,13T,17I,18Q,22V,23A,28Y,30W,31L]-hPYY(4-36)] | 9.1 mg/mL | 9.1 mg/mL | > 5 µM | > 5 µM | > 5 µM | 0.64 nM
2 | CC[C@H](C)[C@H](NC(=O)[C@H](CCC(=O)O)NC(=O)[C@H](CCC(=O)O)NC(=O)[C@@H]1CCCN1C(=O)[C@H](CO)NC(=O)[C@H](C)NC(=O)[C@H](C)NC(=O)[C@H](CCC(=O)O)NC(=O)[C@H](CCC(=O)O)NC(=O)[C@@H]1CCCN1C(=O)[C@H](CCCCNC(=O)CCCCCNC(=O)CC[C@H](NC(=O)CCCCCCCCCCCCCCCCC(=O)O)C(=O)O)NC(=O)[C@H](CCC(=O)O)NC(=O)[C@@H]1CCCN1C(=O)[C@H](C)NC(=O)CC(C)C)C(=O)N[C@@H](CCC(N)=O)C(=O)N[C@@H](CCCNC(=N)N)C(=O)N[C@@H](Cc1ccc(O)cc1)C(=O)N[C@@H](Cc1ccc(O)cc1)C(=O)N[C@H](C(=O)N[C@@H](CO)C(=O)N[C@@H](CC(C)C)C(=O)N[C@@H](CCCNC(=N)N)C(=O)N[C@@H](Cc1c[nH]cn1)C(=O)N[C@@H](Cc1ccc(O)cc1)C(=O)N[C@@H](Cc1ccc(O)cc1)C(=O)N[C@@H](CC(N)=O)C(=O)N[C@@H](Cc1c[nH]c2ccccc12)C(=O)N[C@@H](CC(C)C)C(=O)N[C@H](C(=O)N[C@@H](CCCNC(=N)N)C(=O)N[C@@H](CCC(N)=O)C(=O)N[C@@H](CCCNC(=N)N)C(=O)N[C@@H](Cc1ccc(O)cc1)C(N)=O)[C@@H](C)O)C(C)C [Compound 150, N{alpha-4}-(3-methylbutanoyl)-N{epsilon-7}-(6-[(4S)-4-carboxy-4-(17-carboxyheptadecanamido)butanamido]hexanoyl)-[4A,7K,9E,11A,17I,18Q,22V,28Y,30W,31L]-hPYY(4-36)] | 9.7 mg/mL | 10.0 mg/mL | > 5 µM | > 5 µM | > 5 µM | 2.18 nM
3 | CC[C@H](C)[C@H](NC(=O)[C@H](CCC(=O)O)NC(=O)[C@H](CCC(=O)O)NC(=O)[C@@H]1CCCN1C(=O)[C@H](CCC(=O)O)NC(=O)[C@H](C)NC(=O)[C@H](CC(=O)O)NC(=O)[C@H](CCC(=O)O)NC(=O)[C@@H]1CCCN1C(=O)[C@@H]1CCCN1C(=O)[C@H](CCCCNC(=O)CCCCCNC(=O)CC[C@H](NC(=O)CCCCCCCCCCCCCCCCC(=O)O)C(=O)O)NC(=O)[C@H](CCC(=O)O)NC(=O)[C@@H]1CCCN1C(=O)[C@H](C)NC(=O)CC(C)C)C(=O)N[C@@H](CCC(N)=O)C(=O)N[C@@H](CCCNC(=N)N)C(=O)N[C@@H](Cc1ccc(O)cc1)C(=O)N[C@@H](Cc1ccc(O)cc1)C(=O)N[C@H](C(=O)N[C@@H](CO)C(=O)N[C@@H](CC(C)C)C(=O)N[C@@H](CCCNC(=N)N)C(=O)N[C@@H](Cc1c[nH]cn1)C(=O)N[C@@H](Cc1ccc(O)cc1)C(=O)N[C@@H](Cc1ccc(O)cc1)C(=O)N[C@@H](CC(N)=O)C(=O)N[C@@H](Cc1c[nH]c2ccccc12)C(=O)N[C@@H](CC(C)C)C(=O)N[C@H](C(=O)N[C@@H](CCCNC(=N)N)C(=O)N[C@@H](CCC(N)=O)C(=O)N[C@@H](CCCNC(=N)N)C(=O)N[C@@H](Cc1ccc(O)cc1)C(N)=O)[C@@H](C)O)C(C)C [Compound 118, N{alpha-4}-(3-methylbutanoyl)-N{epsilon-7}-(6-[(4S)-4-carboxy-4-(17-carboxyheptadecanamido)butanamido]hexanoyl)-[4A,7K,9P,13E,17I,18Q,22V,28Y,30W,31L]-hPYY(4-36)] | 10.0 mg/mL | 9.5 mg/mL | > 5 µM | > 5 µM | > 5 µM | 1 nM
4 | CC(C)CC(=O)N[C@@H](C)C(=O)N1CCC[C@H]1C(=O)N[C@@H](CCC(=O)O)C(=O)N[C@@H](CCCCNC(=O)CCCCCNC(=O)CC[C@H](NC(=O)CCCCCCCCCCCCCCCCC(=O)O)C(=O)O)C(=O)N1CCC[C@H]1C(=O)N[C@@H](CCC(=O)O)C(=O)N[C@@H](C)C(=O)N[C@@H](CCC(=O)O)C(=O)N[C@@H](C)C(=O)N[C@@H](CO)C(=O)N1CCC[C@H]1C(=O)N[C@@H](CCC(=O)O)C(=O)N[C@@H](CCC(=O)O)C(=O)N[C@@H](CC(C)C)C(=O)N[C@@H](CCC(N)=O)C(=O)N[C@@H](CCCNC(=N)N)C(=O)N[C@@H](Cc1ccc(O)cc1)C(=O)N[C@@H](Cc1ccc(O)cc1)C(=O)N[C@H](C(=O)N[C@@H](CO)C(=O)N[C@@H](CC(C)C)C(=O)N[C@@H](CCCNC(=N)N)C(=O)N[C@@H](Cc1c[nH]cn1)C(=O)N[C@@H](Cc1ccc(O)cc1)C(=O)N[C@@H](Cc1ccc(O)cc1)C(=O)N[C@@H](CC(N)=O)C(=O)N[C@@H](Cc1c[nH]c2ccccc12)C(=O)N[C@@H](CC(C)C)C(=O)N[C@H](C(=O)N[C@@H](CCCNC(=N)N)C(=O)N[C@@H](CCC(N)=O)C(=O)N[C@@H](CCCNC(=N)N)C(=O)N[C@@H](Cc1ccc(O)cc1)C(N)=O)[C@@H](C)O)C(C)C [Compound 122, N{alpha-4}-(3-methylbutanoyl)-N{epsilon-7}-(6-[(4S)-4-carboxy-4-(17-carboxyheptadecanamido)butanamido]hexanoyl)-[4A,7K,9E,10A,11E,18Q,22V,28Y,30W,31L]-hPYY(4-36)] | 9.8 mg/mL | 9.9 mg/mL | > 5 µM | > 5 µM | > 5 µM | 
